# Assay results taken from patent US12030897B2, “Pyrrolo[2,1-f][1,2,4]triazine derivatives serving as selective HER2 inhibitors and application thereof” (MEDSHINE DISCOVERY INC., priority 2018, dated 2024).
# pIC50: −log10 of the molar value. Values joined by “and” are separate entries in the source; they are usually repeats but may differ in a detail not shown here. Equal values may be shown once.
# What was measured:
# CYP2C9 = CYP2C9 (Homo sapiens (Human), UniProt P11712); test: Inhibition of human liver microsomal cytochrome P450 isoenzyme CYP2C9; assay type: in vitro ADME; conditions: human liver microsomes
# CYP2C9, sequence (P11712 whole entry): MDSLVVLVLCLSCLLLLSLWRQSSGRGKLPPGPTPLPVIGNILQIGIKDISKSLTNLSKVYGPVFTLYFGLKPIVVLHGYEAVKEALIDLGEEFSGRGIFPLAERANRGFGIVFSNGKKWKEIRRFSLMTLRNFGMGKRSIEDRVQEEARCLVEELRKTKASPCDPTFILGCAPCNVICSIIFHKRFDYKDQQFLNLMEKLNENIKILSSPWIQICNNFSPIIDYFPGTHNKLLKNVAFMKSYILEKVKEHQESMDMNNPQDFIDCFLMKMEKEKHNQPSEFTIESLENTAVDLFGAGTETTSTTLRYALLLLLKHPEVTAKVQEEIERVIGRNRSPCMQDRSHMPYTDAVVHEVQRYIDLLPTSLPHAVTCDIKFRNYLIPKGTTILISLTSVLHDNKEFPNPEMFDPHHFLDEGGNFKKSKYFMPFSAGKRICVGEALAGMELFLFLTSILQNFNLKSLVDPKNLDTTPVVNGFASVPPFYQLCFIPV
# Procedure: The object of this study was to evaluate the effect of Example 4 on the activities of five isoenzymes (CYP1A2, CYP2C9, CYP2C19, CYP2D6 and CYP3A4) of human liver microsomal cytochrome P450 (CYP) using an in vitro test system. The specific probe substrates of CYP450 isozymes were incubated with human liver microsomes and different concentrations of Example 4, and reduced nicotinamide adenine dinucleotide phosphate (NADPH) was added to initiate the reaction. After the reaction was completed, the samples were treated, and liquid chromatography tandem mass spectrometry (LC/MS/MS) was used to detect the metabolites produced by specific substrates.
# [1] = test system: human gastric cancer NCI-N87 cell subcutaneous xenograft tumor; test: In vivo efficacy, NCI-N87 subcutaneous xenograft tumor model; set-up: species or system BALB/c nude mice; conditions: 100 mg/kg
# Procedure: Experiment object: to study the efficacy of the tested compound on human gastric cancer NCI-N87 cell subcutaneous xenograft tumor in the BALB/c nude mouse model.
# Experimental animals: female BALB/c nude mice, 6 to 8 weeks old, weight: 18 to 22 grams; Supplier: Shanghai Xipuer-Bikai Laboratory Animal Co., Ltd.
# Human gastric cancer NCI-N87 cells were cultured in a monolayer in vitro, and the culture conditions were: RPMI-1640 medium with 10% fetal bovine serum, 100 U/mL penicillin, 100 μg/mL streptomycin and 2 mM glutamine, and 37° C., 5% CO2. Conventional digestion treatment with pancreatin-EDTA for passage was carried out twice a week. When the cell saturation was 80% to 90%, the cells were collected, counted and inoculated.
# 0.2 mL of (10×10^6) NCI-N87 cells were subcutaneously inoculated into the right back of each nude mouse (PBS:Matrigel=1:1). The grouping and administration were started when the average tumor volume reached 130 mm^3.
# The tested compound was prepared as a 10 mg/mL solution, and the solvent was 10% NMP+10% ethylene glycol stearate+80% water.
# The experimental index was to investigate whether the tumor growth was inhibited, delayed or cured. Tumor diameter was measured twice a week with a vernier caliper. the calculation formula of tumor volume: V=0.5a×b^2, wherein a and b represented the long and short diameters of the tumor, respectively.
# The anti-tumor efficacy of the compound was evaluated by TGI (%) or relative tumor proliferation rate T/C (%). TGI (%) reflected the tumor growth inhibition rate.
# relative tumor growth rate T/C (%): calculation formula was as follows: T/C %=TRTV/CRTV (TRTV: RTV of the treatment group; CRTV: RTV of the solvent control group). The relative tumor volume (RTV) was calculated according to the results of the tumor measurement. The calculation equation was RTV=Vt/V0, where V0 was the average tumor volume measured at beginning of the grouping and administration (i.e., d0), and Vt was the average tumor volume at the time of a certain measurement. TRTV and CRTV were obtained from the data on the same day.
# Statistical analysis included mean value and standard error (SEM) of the tumor volume of each group at each time point. […] The comparison between two groups was analyzed by T-test, and the comparison between three or more groups was analyzed by one-way ANOVA.
smiles,measurement,setting,value
Cc1cc(Nc2ncnn3ccc(CN4CCC(N)CC4)c23)ccc1Oc1ccn2ncnc2c1 [Example 4],pIC50,CYP2C9,< 4.30
same,body weight of the mice in the treatment group,[1],decreased slightly
same,T/C,[1]; day 21,2.92%
same,TGI,[1]; day 21,112.13%
same,Tumor volume (Day 21),"[1]; day 21, mean ± SEM",29 mm^3 and 29 ± 7 mm^3
